Like-named read-outs stand apart in the source and are kept apart here. Bounds are passed on as bounds.

Data set [1] deals with HBV-infected NTCP-HepG2 cells, secreted HBsAg. Description: microbe, parasite or virus in culture. The format is cell-based, hepatitis B virus (genotype D, AD38-derived). The note with it: read-out: NTCP HBsAg EC50. An outline of the steps:
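NTCP-HepG2 cells were infected with genotype D HBV at 4000 genome equivalents/cell, then seeded 4 days post-infection with serially diluted compounds (1% DMSO) for 5 days. Supernatant HBsAg was measured by chemiluminescent MSD immunoassay. EC50 from four-parameter fit, geometric mean of ≥4 determinations.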

Data set [2] in a line: MT-4 cytotoxicity assay. Conditions: human. The format is cell-based, human.
[3] abbreviates: Hepatitis B virus, 120 h, secreted HBsAg in supernatant after 5 days, geometric mean of minimum four determinations.
The mark [4] stands for this setting: five days, Cell Titer Glo luminescence, read-out: MT-4 CC50.

As for `COc1cc2c(cc1Oc1ncccn1)[C@H]1CCC(C)(C)N1n1cc(C(=O)O)c(=O)cc1-2` [Example 41, (R)-11-methoxy-3,3-dimethyl-8-oxo-12-(pyrimidin-2-yloxy)-2,3,8,13b-tetrahydro-1H-pyrido[2,1-a]pyrrolo[1,2-c]phthalazine-7-carboxylic acid], in data set [1] (setting [3]), the EC50 turned out to be 120 nM. Besides, the CC50 at 5 days in data set [2] (setting [4]) is over 10000 nM.
With `COCCCOc1cc2c(cc1Cl)-c1cc(=O)c(C(=O)O)cn1N1C2CCCC1(C)C` (stereo not drawn) [Example 11, 13-chloro-12-(3-methoxypropoxy)-7,7-dimethyl-2-oxo-2,7,8,9,10,10a-hexahydrodipyrido[2,1-a:1′,2′-c]phthalazine-3-carboxylic acid], in data set [1] (setting [3]), the EC50 came to 4.3 nM. Besides, in data set [2] (setting [4]), the CC50 at 5 days was over 10000 nM.
Take `CC1(C)CC[C@@H]2c3cc(OCc4ccccc4)c(OC(F)(F)F)cc3-c3cc(=O)c(C(=O)O)cn3N21` [Example 75, (R)-12-(benzyloxy)-3,3-dimethyl-8-oxo-11-(trifluoromethoxy)-2,3,8,13b-tetrahydro-1H-pyrido[2,1-a]pyrrolo[1,2-c]phthalazine-7-carboxylic acid]: the EC50 in data set [1] (Hepatitis B virus, 120 h) worked out at 6.1 nM. Further, the CC50 at 5 days in data set [2] (setting [4]) was found to be 5000 nM.
In the case of `COCCCOc1cc2c(cc1OC(C)C)-c1cc(=O)c(C(=O)O)cn1N1[C@@H]2CCC1(C)C` [Example 22, (R)-11-isopropoxy-12-(3-methoxypropoxy)-3,3-dimethyl-8-oxo-2,3,8,13b-tetrahydro-1H-pyrido[2,1-a]pyrrolo[1,2-c]phthalazine-7-carboxylic acid], in data set [1] (setting [3]), the EC50 turned out to be 12 nM. The CC50 at 5 days in data set [2] (setting [4]) was over 10000 nM.
On to `COCCCOc1cc2c(cc1Cl)-c1cc(=O)c(C(=O)O)cn1[C@@H]1[C@@H]2CCC1(C)C` (single isomer, unassigned) [Example 36], for which the EC50 in data set [1] (setting [3]) stood at 170 nM. Further, the CC50 at 5 days in data set [2] (setting [4]) is over 10000 nM.
The corresponding values for `COCC12CC(COc3cc4c(cc3OC(F)F)-c3cc(=O)c(C(=O)O)cn3N3[C@@H]4CCC3(C)C)(C1)C2` [Compound 105, (R)-11-(difluoromethoxy)-12-((3-(methoxymethyl)bicyclo[1.1.1]pentan-1-yl)methoxy)-3,3-dimethyl-8-oxo-2,3,8,13b-tetrahydro-1H-pyrido[2,1-a]pyrrolo[1,2-c]phthalazine-7-carboxylic acid] are 1.4 nM and over 10000 nM.
In the case of `COCCCOc1cc2c(cc1OC)-c1cc(=O)c(C(=O)O)cn1N1[C@@H]2CCC1(C)C` [Example 14, (R)-11-methoxy-12-(3-methoxypropoxy)-3,3-dimethyl-8-oxo-2,3,8,13b-tetrahydro-1H-pyrido[2,1-a]pyrrolo[1,2-c]phthalazine-7-carboxylic acid], the EC50 in data set [1] (setting [3]) was 2.1 nM. For the same molecule, the CC50 at 5 days in data set [2] (setting [4]) was over 10000 nM.
The corresponding values for `CC1(C)CC[C@@H]2c3cc(-c4cnn(C(F)F)c4)c(Cl)cc3-c3cc(=O)c(C(=O)O)cn3N21` [Example 76, (R)-11-chloro-12-(1-(difluoromethyl)-1H-pyrazol-4-yl)-3,3-dimethyl-8-oxo-2,3,8,13b-tetrahydro-1H-pyrido[2,1-a]pyrrolo[1,2-c]phthalazine-7-carboxylic acid] are 6.3 nM and 4400 nM.
In the case of `O=C(O)c1cn2c(cc1=O)-c1cc(Cl)c(-c3cnn(C4COC4)c3)cc1[C@H]1CCC3(CC3)N12` [Example 86, (R)-11′-chloro-12′-(1-(oxetan-3-yl)-1H-pyrazol-4-yl)-8′-oxo-1′,2′,8′,13b′-tetrahydrospiro[cyclopropane-1,3′-pyrido[2,1-a]pyrrolo[1,2-c]phthalazine]-7′-carboxylic acid], the EC50 in data set [1] (setting [3]) is 24.8 nM. This molecule returned a CC50 at 5 days in data set [2] (MT-4 CC50) of over 10000 nM.
On to `COCCCOc1c(OC)cc2c(c1F)[C@H]1CCC(C)(C)N1n1cc(C(=O)O)c(=O)cc1-2` [Example 67, (R)-13-fluoro-11-methoxy-12-(3-methoxypropoxy)-3,3-dimethyl-8-oxo-2,3,8,13b-tetrahydro-1H-pyrido[2,1-a]pyrrolo[1,2-c]phthalazine-7-carboxylic acid], for which, in data set [1] (setting [3]), the EC50 worked out at 5.3 nM. In data set [2] (setting [4]), the CC50 at 5 days was over 10000 nM.
`CC(C)(C)OC(=O)[C@H]1CCN(c2cc3c(cc2OC(F)(F)F)-c2cc(=O)c(C(=O)O)cn2N2[C@@H]3CCC2(C)C)C1` [Compound 115, (R)-12-((S)-3-(tert-butoxycarbonyl)pyrrolidin-1-yl)-3,3-dimethyl-8-oxo-11-(trifluoromethoxy)-2,3,8,13b-tetrahydro-1H-pyrido[2,1-a]pyrrolo[1,2-c]phthalazine-7-carboxylic acid]: in data set [1] (setting [3]), the 50% effective concentration (EC50) worked out at 2.9 nM. Besides, the CC50 at 5 days in data set [2] (setting [4]) amounted to 8300 nM.
The corresponding values for `COCCCOc1cc2c(cc1C1COC1)-c1cc(=O)c(C(=O)O)cn1N1[C@@H]2CCC1(C)C` [Example 77, (R)-12-(3-methoxypropoxy)-3,3-dimethyl-11-(oxetan-3-yl)-8-oxo-2,3,8,13b-tetrahydro-1H-pyrido[2,1-a]pyrrolo[1,2-c]phthalazine-7-carboxylic acid] are 12.5 nM and over 10000 nM.
The corresponding values for `COCCOCc1cc2c(cc1OC(F)F)-c1cc(=O)c(C(=O)O)cn1N1[C@@H]2CCC1(C)C` [Compound 108, (R)-11-(difluoromethoxy)-12-((2-methoxyethoxy)methyl)-3,3-dimethyl-8-oxo-2,3,8,13b-tetrahydro-1H-pyrido[2,1-a]pyrrolo[1,2-c]phthalazine-7-carboxylic acid] are 16.8 nM and over 10000 nM.
`COCCCOc1cc2c(cc1Cl)-c1cc(=O)c(C(=O)O)cn1[C@H]1[C@H]2CCC1(C)C` (racemic) [Example 31, trans-10-Chloro-11-(3-methoxypropoxy)-3,3-dimethyl-7-oxo-1,2,3,3a,7,12b-hexahydrocyclopenta[c]pyrido[2,1-a]isoquinoline-6-carboxylic acid]: the EC50 in data set [1] (secreted HBsAg in supernatant after 5 days, geometric mean of minimum four determinations) worked out at 6.4 nM. The CC50 at 5 days in data set [2] (setting [4]) is over 10000 nM.
Turning to `COCCCOc1cc2c(cc1COC)-c1cc(=O)c(C(=O)O)cn1N1[C@@H]2COCC12CCC2` [Compound 114, (S)-12′-(methoxymethyl)-13′-(3-methoxypropoxy)-9′-oxo-9′,14b′-dihydro-1′H,3′H-spiro[cyclobutane-1,4′-[1,4]oxazino[3,4-a]pyrido[1,2-c]phthalazine]-8′-carboxylic acid], in data set [1] (setting [3]), the EC50 came out at 67.6 nM. This molecule showed a CC50 at 5 days in data set [2] (MT-4 CC50) of over 10000 nM.
Consider `COCCCOc1c(OC)cc2c(c1Br)[C@H]1CCC(C)(C)N1n1cc(C(=O)O)c(=O)cc1-2` [Example 40, (R)-13-bromo-11-methoxy-12-(3-methoxypropoxy)-3,3-dimethyl-8-oxo-2,3,8,13b-tetrahydro-1H-pyrido[2,1-a]pyrrolo[1,2-c]phthalazine-7-carboxylic acid], for which, in data set [1] (setting [3]), the EC50 was determined as 360 nM. In addition, in data set [2] (setting [4]), the CC50 at 5 days was 8800 nM.
As to `COC(C)(C)C#Cc1cc2c(cc1OC(F)(F)F)-c1cc(=O)c(C(=O)O)cn1N1[C@@H]2CCC1(C)C` [Example 90, (R)-12-(3-methoxy-3-methylbut-1-yn-1-yl)-3,3-dimethyl-8-oxo-11-(trifluoromethoxy)-2,3,8,13b-tetrahydro-1H-pyrido[2,1-a]pyrrolo[1,2-c]phthalazine-7-carboxylic acid], the EC50 in data set [1] (setting [3]) worked out at 5 nM. Moreover, the 50% cytotoxic concentration (CC50) at 5 days in data set [2] (setting [4]) is over 10000 nM.
The corresponding values for `CC1(C)CC[C@@H]2c3cc(-c4cnn(C5COC5)c4)c(OC(F)(F)F)cc3-c3cc(=O)c(C(=O)O)cn3N21` [Example 93, (R)-3,3-dimethyl-12-(1-(oxetan-3-yl)-1H-pyrazol-4-yl)-8-oxo-11-(trifluoromethoxy)-2,3,8,13b-tetrahydro-1H-pyrido[2,1-a]pyrrolo[1,2-c]phthalazine-7-carboxylic acid] are 4.4 nM and over 10000 nM.
The corresponding values for `COc1cc2c(cc1C#CC(C)(C)OC)[C@H]1CCC(C)(C)N1n1cc(C(=O)O)c(=O)cc1-2` [Example 43] are 7.6 nM and over 10000 nM.
The corresponding values for `COCCCOc1cc2c(cc1S(C)(=O)=O)-c1cc(=O)c(C(=O)O)cn1N1[C@@H]2CCC1(C)C` [Example 69, (R)-12-(3-methoxypropoxy)-3,3-dimethyl-11-(methylsulfonyl)-8-oxo-2,3,8,13b-tetrahydro-1H-pyrido[2,1-a]pyrrolo[1,2-c]phthalazine-7-carboxylic acid] are 52 nM and over 10000 nM.
With `COCCCOc1cc2c(cc1Cl)-c1cc(=O)c(C(=O)O)cn1N1CCC[C@@H]21` (single isomer, unassigned) [Example 3], in data set [1] (setting [3]), the EC50 was over 1000 nM. In data set [2] (setting [4]), the CC50 at 5 days is 9100 nM.
The corresponding values for `COCc1cc2c(cc1N1CC[C@@H](COC)C1)[C@H]1CCC(C)(C)N1n1cc(C(=O)O)c(=O)cc1-2` [Compound 117, (R)-11-(methoxymethyl)-12-((R)-3-(methoxymethyl)pyrrolidin-1-yl)-3,3-dimethyl-8-oxo-2,3,8,13b-tetrahydro-1H-pyrido[2,1-a]pyrrolo[1,2-c]phthalazine-7-carboxylic acid] are 5.3 nM and 9700 nM.
For `COCCCOc1cc2c(cc1Cl)-c1cc(=O)c(C(=O)O)cn1N1CCCC(C)(C)C21` (stereo not drawn) [Example 38, 13-chloro-12-(3-methoxypropoxy)-10,10-dimethyl-2-oxo-2,7,8,9,10,10a-hexahydrodipyrido[2,1-a:1′,2′-c]phthalazine-3-carboxylic acid], in data set [1] (setting [3]), the EC50 turned out to be 27 nM. In data set [2] (setting [4]), the CC50 at 5 days was 9900 nM.
The corresponding values for `COc1cc2c(cc1OCCCOc1ccccc1)[C@H]1CCC(C)(C)N1n1cc(C(=O)O)c(=O)cc1-2` [Example 61] are 0.94 nM and 6000 nM.

In general, EC50 refers to the concentration giving half of the maximal effect. In general, CC50 refers to the concentration at which the toxic effect on the cells reaches its halfway point.

The values above are taken from US10442804B2, “Compounds for the treatment of hepatitis B virus infection” (Gilead Sciences, Inc., priority 2017, dated 2019).
